Source: PMC12455572, “Amphipathic Proline-Rich Cell Penetrating Peptides for Targeting Mitochondria” (ACS Chemical Biology, 2025)
Entries after “also recorded” stand apart in the source; their conditions may differ.

Columns and labels:
[1] = RP-HPLC retention time as estimate of hydrophobicity (C4 column, 30 to 55% B); assay type: physicochemical; conditions: RP-HPLC used as estimate of hydrophobicity, A H2O/MeCN/TFA (1000/10/1), gradient 30 to 55% B, 20 min, CF-Ahx-labelled peptides
Experimental: 2 (A) General structure of amphipathic peptides, CF-Ahx-[XZZ]3-NH2; CF = 5(6)-Carboxyfluorescein, Ahx = aminohexanoic acid. (B) CD spectra of the peptides, recorded at 50 μM in H2O, pH 5.7. For a comparison with a spectrum of a Gup oligomer, see Figure S2. (C) Retention time of the peptides measured by RP-HPLC on a C4 column with a mobile phase from 30 to 55% of MeCN in H2O/MeCN/TFA (1000/10/1). (D) Representative confocal microscopic images of live MCF-7 cells, incubated for 1 h at 37 °C with peptide solutions at a concentration of 10 μM in DMEM + 1% FBS (left, in green). Mitochondria were stained with Deep Red MitoTracker (middle, in red) and merged images (right, orange/yellow indicating colocalization) with Hoechst33342 stain (blue) for the nucleus. TEXT PRINTED IN THE PICTURE: (C) (ValZZ)3: tr(min): 1.8 | (C) (PheZZ)3: tr(min): 2.9 | (C) (TrpZZ)3: tr(min): 3.2 | (C) (ChaZZ)3: tr(min): 5.4 DOUBTS OF THE COPYIST ABOUT THIS PICTURE: Panel C, column head: the small lowered letter after t is read as r (tr), not certain
The Gup residues should preorganize the peptides into a PPII helix with one hydrophobic and two cationic edges along the PPII helical peptide. Indeed, circular dichroism (CD) spectra of the peptides display the characteristic minimum and maximum at ∼206 nm and ∼224 nm, respectively, of a PPII helix (Figure B). The spectra imply that the non-proline residues in every third position are tolerated within the helical structure. We used reverse phase high performance liquid chromatography (RP-HPLC) for an estimate of the hydrophobicity of the peptides. On a C4 column using two mobile phases A (H2O/MeCN/TFA (1000/10/1)) and B (MeCN) with a gradient of 30% to 55% B, all peptides eluted over 20 min but with different retention times (Figure C). The Cha-containing peptide had the longest retention time, indicating the highest hydrophobicity within the series, followed by the Trp-, Phe-, and Val-peptides.

[2] = tested on: MCF-7 cells; assay: Confocal microscopy of live cells: cellular uptake and intracellular localization; assay type: cell-based; conditions: live MCF-7 cells, 1 h, 37 °C, DMEM + 1% FBS
Experimental: MitoTracker Deep Red was used as a counter stain for mitochondria and Hoechst 33342 for the nucleus. […] To explore whether PPII-helicity is key for mitochondrial localization, we prepared peptide CF-Ahx-(ChaRR)3-NH2 with Arg instead of Gup residues. This control peptide features a flexible conformation as judged by CD spectroscopy (Figure S1B). […] These findings show the importance of the secondary structure of the CPP for subcellular organelle localization.
MCF-7 cells were seeded in a 8-μwell Ibidi plate at 25′000 cells/well in DMEM (100 μL, 10% FCS) and allowed to adhere overnight. The medium was removed, the cells were washed with PBS (200 μL, 1x) and incubated with the peptide solution at 20 μM, 10 μM, 5 μM or 2.5 μM in DMEM (200 μL, 1% FCS) for 1 h at 37 °C. The medium was removed, and the cells were washed with PBS (200 μL, 2x). MitoTracker Deep Red was distributed at 20 nM in DMEM (200 μL, 1% FBS) and the cells were incubated at 37 °C for 25 min. The medium was removed, and the cells were washed with PBS (200 μL, 2x). Hoechst333342 was distributed at 2 μM in DMEM (200 μL, 1% FBS) and the cells were incubated at 37 °C for 5 min. The cells were washed with PBS (200 μL, 2x), and FluoroBrite medium (200 μL) was added. The live cells were monitored on the confocal microscope at 37 °C, 5% CO2.
For the cells subjected to a 24 h rest period, the FluoroBrite medium was exchanged for DMEM (200 μL, 10% FBS) after the initial imaging, and the cells were kept in this medium for 24 h. The culture medium was then exchanged for FluoroBrite DMEM, and the cells were imaged again.
Fluorescence images of cells were collected using a Nikon Eclipse T1 (inverse) microscope equipped with a Yokogawa Confocal Scanner Unit CSU-W1-T2, containing a spinning disk (50 µm). The microscope is equipped with two EMCCD Andor iXon Ultra cameras. Emission in the blue channel (405 nm) was filtered with a 450/50 bandpass filter, emission in the green channel (488 nm) was filtered with a 525/50 bandpass, and the emission in the red channel (641 nm) was filtered with a 708/75 bandpass filter. Fluorescence images were obtained using an oil-immersion objective with a magnification of 100 × 1.4 CFI Plan Apo Oil.
Each experiment was repeated at least three times. The images acquired were adjusted using ImageJ2 software. Correlation coefficients were determined on entire images using JaCOP plugin.1 […]
MCF-7 cells were seeded in a 8-µwell Ibidi plate at 25’000 cells/well in DMEM (100 µL, 10% FCS) and allowed to adhere overnight. The medium was removed. The cells were washed with PBS (200 µL, 1x) and incubated with the peptide solution at 20 µM, 10 µM, 5 µM, or 2.5 µM in DMEM (200 µL, 1% FCS) for 1 h at 37 °C. The medium was removed, and the cells were washed with PBS (200 µL, 2x).
For imaging of mitochondria, MitoTracker Deep Red was added as described in the manuscript. For imaging of endosomes/lysosomes, Ly s o Tr a c k e r Deep Red was added (200 µL, 20 nM in DMEM, 1% FBS) followed by incubation of the cells at 37 °C for 25 min. The medium was removed, and the cells were washed with PBS (200 µL, 2x). For imaging of the nucleus, Hoechst333342 was added at (200 µL, 2 µM in DMEM, 1% FBS) followed by incubation of the cells at 37 °C for 5 min. The cells were washed with PBS (200 µL, 2x), and FluoroBrite medium (200 µL) was added. The live cells were monitored on the confocal microscope […]
MCF-7 cells were seeded in a 96-well plate at 7’500 cells/well in cell culture medium (200 µL, 10% FCS), and allowed to adhere overnight. The medium was removed, the cells were washed with PBS (100 µL, 1x) and incubated with the peptide solution at 20 µM, 10 µM, 5 µM, or 2.5 µM in DMEM (200 µL, 1% FCS) for 1 h at 37 °C. The medium was removed, and the cells were washed with PBS (100 µL, 1x). The MTT solution in DMEM (110 µL, 1.2 mM, 1% FBS) was added. The cells were incubated for 3 h at 37 °C. The […]

[3] = earlier work of the authors' group; ref number not given; cited from earlier work
Text: Octa-Gup adopts a polyproline II (PPII) helix in which every third amino acid is aligned (Figure E, center). As a result, the charges are organized along the three edges of the helix. […] In contrast, more flexible analogs–octaarginine and an oligoproline with spacers between the proline backbone and the guanidinium group–are trapped in endo ...

[4] = tested on: MCF-7 cells; assay: Flow cytometry (FACS): overall cellular uptake; assay type: cell-based; conditions: MCF-7, 1 h, 37 °C, Figure S1D
Experimental: MCF-7 cells were seeded in a 24-well plate at 150′000 cells/well in DMEM (1 mL, 10% FCS), and allowed to adhere overnight. The medium was removed, the cells were washed with PBS (250 μL, 1x) and incubated with the peptide solution at 20 μM, 10 μM, 5 μM or 2.5 μM in medium (200 μL, 1% FCS) for 1 h at 37 °C. The medium was removed, and the cells were washed with PBS (250 μL, 2x). Trypsin (100 μL, 0.05%) was added, and the cells were incubated at 37 °C for 5 min. D-PBS with Mg^2+ and Ca^2+ (300 μL, 4 °C) was added, the cells were resuspended and centrifuged for 5 min at 0.4 rcf. The supernatant was carefully removed, and the cells were resuspended in a solution of PBS containing 1.5 μM PI and 2 mM EDTA (400 μL at 4 °C). The cells were added to FACS tubes and kept on ice prior to analysis. Each sample contained 10′000 cells and was analyzed in triplicate. Each experiment was repeated three times.
For the experiments that included the 24 h rest period, the peptides were incubated as described above. After the 1 h incubation time, the cells were washed with PBS (250 μL, 2x), DMEM (250 μL, 10% FBS) was added, and the cells were kept at 37 °C, 5% CO2 for 24 h. For a direct comparison of the effect of a 24 h rest period, another set of peptides was incubated with the cells for 1 h. Then, cells of both sets of experiments (1 h followed by the 24 h rest period versus 1 h incubation) were washed with PBS, treated with trypsin, and prepared for FACS analysis as described above. Each sample was run in triplicate and was repeated three times. […]
MCF-7 cells were obtained from the American Type Culture Collection (ATCC).
The cells were grown in a humidified 5% CO2 atmosphere at 37 °C Dulbecco’s Modified Eagle’s Medium (DMEM), high glucose, GlutaMAXTM (4 mM) supplemented with L-glutamine (4 mM), gentamicin (10 mg/L), […]
Fluorescence-Activated Cell Sorting (FACS) analyzer
On a BD LSRFortessa flow cytometer, CF was excited at 488 nm and monitored with 530/30 bandpass, PI was excited at 561 nm and monitored with a 610/20 bandpass. Mean fluorescence values were determined from the histograms using FlowJo 10.0.6 software while dead cells were removed according to PI staining.
Below is an example, CF-Ahx-(ChaZZ)3, of gating, set on untreated cells and propagated to all samples.
Each sample was run in triplicate, and each experiment was repeated at least three times.
(1 picture or pasted object on this page, not shown here)

[5] = 10 μM peptide, MitoTracker Deep Red and Hoechst 33342 counterstain

Substance: CF-Ahx-(ChaZZ)2-NH2
- Retention time tr [1]: 4.9 min
- Cellular uptake and intracellular localization (confocal microscopy) ([2]; 20 μM peptide): did not penetrate into the cells; also recorded: intracellular fluorescence was not detected

Substance: octaarginine
- Cellular uptake and intracellular localization [3]: trapped in endosomes to a significant extent and exhibit reduced cellular uptake

Substance: CF-Ahx-VZZVZZVZZ [(ValZZ)3, 9-mer CF-Ahx-(XZZ)3-NH2 with X = valine, Z = Gup]
- Cellular uptake and intracellular localization (confocal microscopy) [2, 5]: little cellular uptake
- Cellular uptake and intracellular localization (confocal microscopy) ([2]; 20 μM peptide): little cellular uptake

Substance: CF-Ahx-(ChaRR)3-NH2
- Cellular uptake compared to (ChaZZ)3 (FACS) [4]: enhanced cellular uptake
- Cellular uptake and intracellular localization (confocal microscopy) ([2]; 5 μM peptide): low uptake
- Cellular uptake and intracellular localization (confocal microscopy) [2, 5]: excluded from mitochondria
- Cellular uptake and intracellular localization (confocal microscopy) ([2]; 10 μM peptide, MitoTracker Deep Red and Hoechst 33342 counterstain, listed as CF-Ahx-(ChaRR)3-NH2): high uptake into the cytoplasm and the nucleus, but little to no uptake into mitochondria
